Source: ChEMBL document CHEMBL3430912, “GSK Tres Cantos Anti-Kinetoplastid Screening (TCAKS) Data”

Key:
[1] = system: Trypanosoma cruzi; experiment: GSK_TCAKS: pIC50 Trypanosoma cruzi viability assay using beta-GAL activity. This assay was run at single shot at 5uM compound concentration per well. The biological reagents consisted of NIH-3T3 host cells and trypomastigotes parasitic cells; both cell types were set to a 3.3 * 10^5 cells/mL dilution in assay DMEM by means of a CASY cell counter device using a 60um capillary. 6 uL of the mixture were dispensed per well (about 1 * 10^3 host-cells and 1 * 10^3 parasites) with a Multidrop Combi dispenser. […] In all wells, the percentage of DMSO never exceeded 0.5%. Plates incubated for four days at 37C, 5% CO2. The substrate used for the assay fluorescence intensity (FLINT) readout was resorufin-beta-D-galactopiranoside (Sigma-Aldrich) at 5uM per well. It was diluted in PBS supplemented with the soft detergent Igepal (Fluka).; type: functional, organism-based, Mus musculus; settings: Tulahuen, NIH3T3
[2] = system: Trypanosoma cruzi; experiment: (§1) GSK_TCAKS: pIC50 Trypanosoma cruzi Imaging: Infected Cells. […] Cells were then washed once with PBS before infection. T. cruzi trypomastigotes, collected at days 5 to 8 after infection from LLC-MK2 parasite infected cultures, were allowed to swim out for 4h at 37C from a centrifuged pellet (2,500 rpm/10 min/room temperature). Trypomastigotes were then collected and counted in a CASY Cell Counter. Trypomastigotes, in supplemented DMEM, were added to H9c2 cultures in a multiplicity of infection of 1 and incubated for 18 h. Cells were washed once with PBS before incubation of the infected H9c2 monolayer with trypsin (Life-Technologies) to detach cells from the flask. Cells were counted in a CASY Cell Counter using a 150 um capillary and their density set at 5 * 10^4 cells per mL in supplemented assay DMEM. Infected H9c2 were dispensed into 384-well poly-lysine coated assay plates at 50uL per well using a Multidrop Combi dispenser. After seeding them, the plates were incubated at 37C, 5% CO2 for 72h. Cultures were then fixed and stained by addition of 50 uL of a solution containing 8% formaldehyde and 4 uM DRAQ5 DNA dye (BioStatus, UK) per well. […] Five images were collected per well for reliable statistical analysis. Automated image analysis was performed with a script developed on Acapella High Content Imaging and Analysis Software (PerkinElmer). Output: percentage of infected cells per well as a second infection marker.; type: functional, organism-based, Rattus norvegicus; settings: H9c2, 4 h
[3] = system: Trypanosoma cruzi; experiment: GSK_TCAKS: pIC50 Trypanosoma cruzi Imaging: Amastigotes/Cell. […] Cells were then washed once with PBS before infection. T. cruzi trypomastigotes, collected at days 5 to 8 after infection from LLC-MK2 parasite infected cultures, were allowed to swim out for 4h at 37C from a centrifuged pellet (2,500 rpm/10 min/room temperature). Trypomastigotes were then collected and counted in a CASY Cell Counter. Trypomastigotes, in supplemented DMEM, were added to H9c2 cultures in a multiplicity of infection of 1 and incubated for 18 h. Cells were washed once with PBS before incubation of the infected H9c2 monolayer with trypsin (Life-Technologies) to detach cells from the flask. Cells were counted in a CASY Cell Counter using a 150 um capillary and their density set at 5 * 10^4 cells per mL in supplemented assay DMEM. Infected H9c2 were dispensed into 384-well poly-lysine coated assay plates at 50uL per well using a Multidrop Combi dispenser. After seeding them, the plates were incubated at 37C, 5% CO2 for 72h. Cultures were then fixed and stained by addition of 50 uL of a solution containing 8% formaldehyde and 4 uM DRAQ5 DNA dye (BioStatus, UK) per well. […] Five images were collected per well for reliable statistical analysis. Automated image analysis was performed with a script developed on Acapella High Content Imaging and Analysis Software (PerkinElmer). Output: number of amastigotes per cell as infection level measurement.; type: functional, organism-based, Rattus norvegicus; settings: H9c2, 4 h
[4] = system: Trypanosoma cruzi; experiment: as §1, with “H2C9” for “Trypanosoma cruzi”, “H9c2 Host Cardiomyocytes.” for “Infected Cells.”, “Number” for “percentage”, “H9c2 Host Cardiomyocytes nuclei to determine drug-related cytotoxicity.” for “infected cells per well as a second infection marker.”; type: functional, organism-based, Rattus norvegicus; settings: H9c2, 4 h
[5] = system: Leishmania donovani; experiment: GSK_TCAKS: pIC50 Leishmania donovani viability assay using fluorescence intensity. Assay plates (1536-well) were prepared by adding 30nL per well of compound. For single shot assay, the final compound concentration was 5uM. […] Briefly, eGFP LdBOB axenic amastigotes were harvested, fixed and counted in a CASY cell counter (Roche-Applied Science). A final concentration of 1.5 * 10^5 cells per well were prepared in amastigote media containing 500 U/mL penicillin/streptomycin (Invitrogen) and 6uL was dispensed to each experimental well using a Multidrop Combi dispenser (Thermo Scientific). 6uL of assay media was dispensed to control columns used as reference for 100% compound response. Following incubation for 72 h at 37C, 5% CO2, 2 uL of resazurin was added to each well at a final concentration of 0.5 mM in phosphate buffered saline (PBS) with IGEPAL (Sigma-Aldrich), 0.05% (v/v).; type: functional, organism-based
[6] = system: Leishmania donovani; experiment: (§2) GSK_TCAKS: pIC50 Leishmania donovani Imaging: Infected Macrophages. Assay plates (384-well) were prepared by adding 250nL of compound to each well. For single shot assay, the final compound concentration was 5 uM. […] Automated image analysis was performed with a script developed on Acapella High Content Imaging and Analysis Software (PerkinElmer). Output: Percent of infected macrophage cells were reported for each well.; type: functional, organism-based, Homo sapiens; settings: THP-1
[7] = system: Leishmania donovani; experiment: as §2, with “Amastigotes/Macrophages.” for “Infected Macrophages.”, “Average number” for “Percent”, “amastigotes per” for “infected”, “cell” for “cells”; type: functional, organism-based, Homo sapiens; settings: THP-1
[8] = system: Leishmania donovani; experiment: as §2, with “THP-1 Host” for “Infected”, “THP-1 cell count” for “Percent of infected macrophage cells”; type: functional, organism-based, Homo sapiens
[9] = system: Trypanosoma brucei brucei; experiment: GSK_TCAKS: pIC50 Trypanosoma brucei viability assay using fluorescence intensity. Assay plates (1536-well) were prepared by dispensing 25nL of compound solution per well using an Echo acoustic dispenser (Labcyte).; type: functional, organism-based; settings: Lister 427, 2 h
[10] = system: Trypanosoma brucei brucei; experiment: GSK_TCAKS: pIC50 Trypanosoma brucei viability assay using luminiscence. Assay plates (1536-well) were prepared. T. brucei cultures were harvested and counted in a CASY cell counter. A parasite suspension was prepared at a final concentration of 5 * 10^4 cells/mL in complete HMI9 medium and 6uL was dispensed to all wells containing compounds using a Multidrop Combi dispenser. 6uL of HMI9 media with 0.4% DMSO were dispensed to control columns. Plates were incubated for 24 h at 37C, 5% CO2 then tempered for 10 min at room temperature. ATP content was quantified by adding 4 uL of CellTiter-Glo Reagent (Promega) according to the manufacturer's instructions. Luminescence was measured using a ViewLux.; type: functional, organism-based; settings: Lister 427, CASY
[11] = GSK_TCAKS: pIC50 HepG2 human cell line viability assay using luminiscence. […] Seeding density was checked to ensure that new mono-layers were not more than 50% confluent at the time of harvesting. Cell suspension was added to 500 mL of the same medium at a final density of 1.2 * 10^5 cells/mL. This cell suspension was dispensed (25 uL, 3000 cells per well) into 384-well clear-bottom plates using a Multidrop Combi dispenser. Prior to addition of the cell suspension, the screening compounds (250 nL) were pre-dispensed into the plates with an Echo liquid handler. Plates were incubated for 48 h at 37C, 5% CO2. After incubation, plates equilibrated at room temperature for 30 min before proceeding to develop the luminescent signal. The signal developer, CellTiter-Glo Reagent, was allowed to equilibrate at room temperature for 30 min and added to the plates (25uL per well) using a Multidrop Combi dispenser. Plates were left for 10 min at room temperature for stabilization and then read using a ViewLux.; type: toxicity, cell-based
[12] = system: NIH3T3; experiment: GSK_TCAKS: pIC50 NIH 3T3 cell line viability assay using luminiscence. Tissue culture surface treated assay plates (1536-well) were used. […] The 100% cells survival control was determined exposing the host-cells to a 0.5% DMSO concentration, whereas the 100% toxicity control was achieved by seeding the cells in presence of Amphotericin B at 50uM. Plates were incubated for four days at 37C, 5% CO2. The assay readout was developed by addition of 5uL of CellTiter-Glo Reagent following the manufacturer's instructions. Luminiscence was measured using a ViewLux.; type: functional, cell-based; settings: Mus musculus, NIH3T3, 96 h
[13] = target: Sterol 14-alpha demethylase (Trypanosoma cruzi (strain CL Brener), UniProt Q7Z1V1); experiment: GSK_TCAKS: pIC50 CYP51 from Trypanosoma cruzi.; type: functional
Sterol 14-alpha demethylase, sequence (Q7Z1V1 whole entry): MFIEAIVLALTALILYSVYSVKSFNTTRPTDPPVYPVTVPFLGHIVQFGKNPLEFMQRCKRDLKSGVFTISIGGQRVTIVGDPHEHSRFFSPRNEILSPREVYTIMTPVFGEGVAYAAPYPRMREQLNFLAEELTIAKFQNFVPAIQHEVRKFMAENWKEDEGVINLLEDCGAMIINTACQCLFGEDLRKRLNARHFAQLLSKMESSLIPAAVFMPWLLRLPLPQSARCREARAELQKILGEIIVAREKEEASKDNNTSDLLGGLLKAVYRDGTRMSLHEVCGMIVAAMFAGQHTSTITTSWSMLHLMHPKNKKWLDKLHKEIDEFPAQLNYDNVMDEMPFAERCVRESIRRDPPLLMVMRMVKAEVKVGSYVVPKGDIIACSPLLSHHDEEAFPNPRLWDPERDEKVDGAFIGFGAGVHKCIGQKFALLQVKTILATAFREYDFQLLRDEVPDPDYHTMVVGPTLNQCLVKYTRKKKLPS

Compound	IC50 [1]	IC50 [2]	IC50 [3]	IC50 [4]	IC50 [5]	IC50 [6]	IC50 [7]	IC50 [8]	IC50 [9]	IC50 [10]	IC50 at 48 h [11]	IC50 [12]	IC50 [13]
CS(=O)(=O)c1ccc(CC(=O)Nc2nc(-c3ccc(Cl)s3)cs2)cc1	0.398 µM	0.316 µM	0.398 µM	15.8 µM	> 50.1 µM	> 50.1 µM	> 50.1 µM	15.8 µM	10 µM	> 39.8 µM	> 100 µM	> 50.1 µM	> 100 µM
Cc1ccc2c(c1)-c1onc(C(=O)N3CCCCC3c3cccnc3)c1CO2 (stereo not given)	0.1 µM	0.126 µM	0.126 µM	> 50.1 µM	31.6 µM	> 50.1 µM	39.8 µM	39.8 µM	39.8 µM	> 39.8 µM	50.1 µM	20 µM	0.1 µM
COc1ccc(-c2cc(C)no2)cc1S(=O)(=O)Nc1ccc(F)c(Cl)c1	1.58 µM	3.16 µM	3.98 µM	50.1 µM	25.1 µM	25.1 µM	20 µM	31.6 µM	15.8 µM	25.1 µM	79.4 µM	25.1 µM	> 100 µM
COc1ccc(NS(=O)(=O)c2cc(-c3cc(C)n[nH]3)ccc2C)cc1OC	1.41 µM	2 µM	1.26 µM	> 50.1 µM	1 µM	10 µM	7.94 µM	> 50.1 µM	0.316 µM	0.631 µM	> 100 µM	> 50.1 µM	39.8 µM
O=S(=O)(c1cccc(CSc2nnc(-c3ccc4c(c3)OCO4)o2)c1)N1CCOCC1	0.224 µM	0.1 µM	0.0398 µM	25.1 µM	0.501 µM	0.794 µM	0.251 µM	> 50.1 µM	31.6 µM	> 39.8 µM	> 100 µM	15.8 µM	12.6 µM
O=C(Nc1ccc(C(=O)N2CCCC2c2ccc3c(c2)OCCCO3)cc1)c1ccco1 (stereo not given)	0.501 µM	1 µM	0.631 µM	> 50.1 µM	0.794 µM	6.31 µM	3.16 µM	> 50.1 µM	0.2 µM	0.316 µM	> 100 µM	> 50.1 µM	63.1 µM
CC1CN(S(=O)(=O)c2ccc(NC(=O)c3cc(C4CC4)nc4c3cnn4C(C)C)cc2)CC(C)O1 (stereo not given)	0.631 µM	0.794 µM	0.631 µM	> 50.1 µM	20 µM	> 50.1 µM	> 50.1 µM	10 µM	6.31 µM	6.31 µM	> 100 µM	> 50.1 µM	> 100 µM
O=C(NCCc1cccnc1)c1csc(-c2ccccc2)n1	0.282 µM	0.501 µM	0.398 µM	> 50.1 µM	> 50.1 µM	> 50.1 µM	> 50.1 µM	> 50.1 µM	25.1 µM	> 39.8 µM	> 100 µM	50.1 µM	0.0631 µM
CC(=O)Nc1nc(-c2cc(C)ccc2C)c(C)s1	0.2 µM	0.2 µM	0.158 µM	> 50.1 µM	> 50.1 µM	> 50.1 µM	31.6 µM	> 50.1 µM	> 39.8 µM	> 39.8 µM	> 100 µM	25.1 µM	> 100 µM
O=c1[nH]c(C=Cc2cccc(OCCOc3ccccc3)c2)nc(O)c1[N+](=O)[O-]	0.794 µM	0.2 µM	0.158 µM	> 50.1 µM	> 50.1 µM	> 50.1 µM	> 50.1 µM	> 50.1 µM	10 µM	10 µM	> 100 µM	> 50.1 µM	> 100 µM
Cn1nccc1-c1cc(OC(CN)c2ccccc2)cnc1-c1ccco1 (stereo not given)	0.398 µM	0.1 µM	0.1 µM	> 50.1 µM	> 50.1 µM	> 50.1 µM	31.6 µM	15.8 µM	12.6 µM	15.8 µM	50.1 µM	20 µM	0.0631 µM
CN(Cc1cc2ccccc2s1)c1ncc2c(N)nc(N)nc2n1	2 µM	3.16 µM	0.794 µM	20 µM	31.6 µM	31.6 µM	25.1 µM	25.1 µM	31.6 µM	25.1 µM	39.8 µM	25.1 µM	> 100 µM
Clc1ccc(OCCN2CCCCC2c2cccnc2)c(Cl)c1 (stereo not given)	0.398 µM	0.2 µM	0.158 µM	> 50.1 µM	5.01 µM	> 50.1 µM	5.01 µM	> 50.1 µM	31.6 µM	> 39.8 µM	79.4 µM	25.1 µM	0.0631 µM
O=C(NCCNc1noc(-c2ccc([N+](=O)[O-])cc2)n1)c1ccc(Cl)cc1	2 µM	> 50.1 µM	1.26 µM	> 50.1 µM	> 50.1 µM	> 50.1 µM	> 50.1 µM	15.8 µM	3.16 µM	> 39.8 µM	> 100 µM	> 50.1 µM	> 100 µM
CN(Cc1cccnc1)Cc1ccc(N2CCN(C(=O)C3(c4ccc(Cl)cc4)CC3)CC2)nc1	0.501 µM	1.58 µM	1.26 µM	> 50.1 µM	31.6 µM	> 50.1 µM	> 50.1 µM	10 µM	31.6 µM	25.1 µM	> 100 µM	7.94 µM	0.158 µM
